Data: ChEMBL document CHEMBL5649169 (ChemMedChem, 2018)

Assays:
[1] = biological target: Surfeit locus protein 4 (Homo sapiens) (UniProt O15260)
[2] = biological target: Serine/threonine-protein kinase D3 (Homo sapiens) (UniProt O94806)
[3] = biological target: Non-selective voltage-gated ion channel VDAC3 (Homo sapiens) (UniProt Q9Y277)
[4] = biological target: GTP-binding nuclear protein Ran (Homo sapiens) (UniProt P62826)
[5] = biological target: Serine-protein kinase ATM (Homo sapiens) (UniProt Q13315)
[6] = biological target: Serine/arginine-rich splicing factor 3 (Homo sapiens) (UniProt P84103)
[7] = biological target: Peripherin (Homo sapiens) (UniProt P41219)
[8] = biological target: Cyclin-dependent kinase 3 (Homo sapiens) (UniProt Q00526)
[9] = biological target: Cyclin-dependent kinase-like 5 (Homo sapiens) (UniProt O76039)
[10] = biological target: Staphylococcal nuclease domain-containing protein 1 (Homo sapiens) (UniProt Q7KZF4)
[11] = biological target: Protein kinase C theta type (Homo sapiens) (UniProt Q04759)
[12] = biological target: Exportin-T (Homo sapiens) (UniProt O43592)
[13] = biological target: Mitogen-activated protein kinase kinase kinase kinase 3 (Homo sapiens) (UniProt Q8IVH8)
[14] = biological target: Phosphatidylinositol 5-phosphate 4-kinase type-2 gamma (Homo sapiens) (UniProt Q8TBX8)
[15] = biological target: Exportin-7 (Homo sapiens) (UniProt Q9UIA9)
[16] = biological target: Putative RNA-binding protein Luc7-like 2 (Homo sapiens) (UniProt Q9Y383)
[17] = biological target: Chitobiosyldiphosphodolichol beta-mannosyltransferase (Homo sapiens) (UniProt Q9BT22)
[18] = biological target: Peptidyl-prolyl cis-trans isomerase A (Homo sapiens) (UniProt P62937)
[19] = biological target: Ubiquitin-associated protein 2-like (Homo sapiens) (UniProt Q14157)
[20] = biological target: Protein disulfide-isomerase A3 (Homo sapiens) (UniProt P30101)
[21] = biological target: T-complex protein 1 subunit theta (Homo sapiens) (UniProt P50990)
[22] = biological target: Tyrosine-protein kinase Lyn (Homo sapiens) (UniProt P07948)
[23] = biological target: Tyrosine-protein kinase Fyn (Homo sapiens) (UniProt P06241)
[24] = biological target: Conserved oligomeric Golgi complex subunit 7 (Homo sapiens) (UniProt P83436)
[25] = biological target: Large ribosomal subunit protein eL24 (Homo sapiens) (UniProt P83731)
[26] = biological target: Protein LYRIC (Homo sapiens) (UniProt Q86UE4)
[27] = biological target: FACT complex subunit SPT16 (Homo sapiens) (UniProt Q9Y5B9)
[28] = biological target: 26S proteasome non-ATPase regulatory subunit 12 (Homo sapiens) (UniProt O00232)
[29] = biological target: Tyrosine-protein kinase Tec (Homo sapiens) (UniProt P42680)
[30] = biological target: Synaptosomal-associated protein 23 (Homo sapiens) (UniProt O00161)
[31] = biological target: Large ribosomal subunit protein eL21 (Homo sapiens) (UniProt P46778)
[32] = biological target: Neuronal migration protein doublecortin (Homo sapiens) (UniProt O43602)
[33] = biological target: RNA-binding protein 3 (Homo sapiens) (UniProt P98179)
[34] = biological target: Double-stranded RNA-binding protein Staufen homolog 1 (Homo sapiens) (UniProt O95793)
[35] = biological target: Serine/threonine-protein kinase PLK1 (Homo sapiens) (UniProt P53350)
[36] = biological target: Serine/threonine-protein kinase STK11 (Homo sapiens) (UniProt Q15831)
[37] = biological target: Membrane-associated progesterone receptor component 1 (Homo sapiens) (UniProt O00264)
[38] = biological target: Cytochrome b-c1 complex subunit 2, mitochondrial (Homo sapiens) (UniProt P22695)
[39] = biological target: Large ribosomal subunit protein uL16 (Homo sapiens) (UniProt P27635)
[40] = biological target: Large ribosomal subunit protein eL14 (Homo sapiens) (UniProt P50914)
[41] = biological target: Mitogen-activated protein kinase kinase kinase 5 (Homo sapiens) (UniProt Q99683)
[42] = biological target: Acetyl-CoA carboxylase 1 (Homo sapiens) (UniProt Q13085)
[43] = biological target: Protein RCC2 (Homo sapiens) (UniProt Q9P258)
[44] = biological target: Glutathione S-transferase P (Homo sapiens) (UniProt P09211)
[45] = biological target: RuvB-like 1 (Homo sapiens) (UniProt Q9Y265)
Plectin (Homo sapiens) = Plectin (Homo sapiens) (UniProt Q15149)
[46] = biological target: Transmembrane 9 superfamily member 3 (Homo sapiens) (UniProt Q9HD45)
Note: assay method not described here.

Serine/threonine-protein kinase STK11 (Homo sapiens), sequence (Q15831 whole entry): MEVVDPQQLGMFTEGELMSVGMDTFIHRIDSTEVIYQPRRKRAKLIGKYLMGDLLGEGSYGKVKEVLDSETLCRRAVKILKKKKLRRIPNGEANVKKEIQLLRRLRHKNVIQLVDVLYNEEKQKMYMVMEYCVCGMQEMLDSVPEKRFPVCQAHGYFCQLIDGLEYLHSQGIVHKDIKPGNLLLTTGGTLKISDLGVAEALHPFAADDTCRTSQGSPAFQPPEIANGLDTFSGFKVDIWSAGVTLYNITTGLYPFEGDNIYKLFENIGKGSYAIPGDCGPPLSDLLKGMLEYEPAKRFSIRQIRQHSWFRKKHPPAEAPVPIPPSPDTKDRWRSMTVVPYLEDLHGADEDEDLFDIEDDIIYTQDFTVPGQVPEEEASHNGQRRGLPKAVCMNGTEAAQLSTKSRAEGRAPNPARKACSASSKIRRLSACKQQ
Tyrosine-protein kinase Fyn (Homo sapiens), sequence (P06241 2-537 limits assumed): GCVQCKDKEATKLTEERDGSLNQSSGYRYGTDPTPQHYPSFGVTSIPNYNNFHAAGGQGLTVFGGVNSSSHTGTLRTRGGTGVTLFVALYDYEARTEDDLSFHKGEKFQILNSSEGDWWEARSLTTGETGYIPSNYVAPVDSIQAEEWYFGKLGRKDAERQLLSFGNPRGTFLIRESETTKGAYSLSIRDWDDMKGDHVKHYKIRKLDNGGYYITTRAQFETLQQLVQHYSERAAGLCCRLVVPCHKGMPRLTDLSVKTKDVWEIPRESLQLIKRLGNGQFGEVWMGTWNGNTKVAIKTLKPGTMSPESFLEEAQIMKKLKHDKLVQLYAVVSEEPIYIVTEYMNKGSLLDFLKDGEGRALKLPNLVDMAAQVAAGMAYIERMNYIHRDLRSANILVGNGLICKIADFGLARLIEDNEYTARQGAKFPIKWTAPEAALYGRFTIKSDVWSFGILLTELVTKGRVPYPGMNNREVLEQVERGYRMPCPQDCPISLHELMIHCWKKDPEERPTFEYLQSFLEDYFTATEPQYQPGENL
Staphylococcal nuclease domain-containing protein 1 (Homo sapiens), sequence (Q7KZF4 whole entry, the tested form may be a part): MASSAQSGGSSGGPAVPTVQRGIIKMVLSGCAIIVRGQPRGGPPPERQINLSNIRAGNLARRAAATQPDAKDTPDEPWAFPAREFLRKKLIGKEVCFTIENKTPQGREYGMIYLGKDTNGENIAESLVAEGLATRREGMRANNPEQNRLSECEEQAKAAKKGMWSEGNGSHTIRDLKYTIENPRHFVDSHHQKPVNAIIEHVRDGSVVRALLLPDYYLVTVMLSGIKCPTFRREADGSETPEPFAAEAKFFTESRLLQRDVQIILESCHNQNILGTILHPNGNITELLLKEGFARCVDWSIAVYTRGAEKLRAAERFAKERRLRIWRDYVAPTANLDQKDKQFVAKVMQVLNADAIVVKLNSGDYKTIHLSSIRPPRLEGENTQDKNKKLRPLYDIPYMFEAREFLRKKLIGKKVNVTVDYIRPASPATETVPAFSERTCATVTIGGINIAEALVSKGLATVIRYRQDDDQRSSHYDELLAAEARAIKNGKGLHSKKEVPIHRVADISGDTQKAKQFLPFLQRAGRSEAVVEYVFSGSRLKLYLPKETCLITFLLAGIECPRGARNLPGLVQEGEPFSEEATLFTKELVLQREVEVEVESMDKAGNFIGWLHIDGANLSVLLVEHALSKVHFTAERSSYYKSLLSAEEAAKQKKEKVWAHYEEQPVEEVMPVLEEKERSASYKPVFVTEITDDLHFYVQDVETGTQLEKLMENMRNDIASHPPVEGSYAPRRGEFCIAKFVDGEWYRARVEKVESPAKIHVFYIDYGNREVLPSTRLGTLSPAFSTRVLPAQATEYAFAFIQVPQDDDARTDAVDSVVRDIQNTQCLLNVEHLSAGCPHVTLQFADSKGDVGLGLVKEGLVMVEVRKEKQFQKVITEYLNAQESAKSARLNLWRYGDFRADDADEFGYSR
Synaptosomal-associated protein 23 (Homo sapiens), sequence (O00161 whole entry): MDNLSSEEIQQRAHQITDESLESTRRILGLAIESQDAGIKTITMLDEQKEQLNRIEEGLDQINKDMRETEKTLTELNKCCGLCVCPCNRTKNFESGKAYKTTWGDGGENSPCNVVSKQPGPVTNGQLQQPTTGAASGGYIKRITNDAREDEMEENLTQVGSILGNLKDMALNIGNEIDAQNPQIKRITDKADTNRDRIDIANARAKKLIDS
Non-selective voltage-gated ion channel VDAC3 (Homo sapiens), sequence (Q9Y277 whole entry): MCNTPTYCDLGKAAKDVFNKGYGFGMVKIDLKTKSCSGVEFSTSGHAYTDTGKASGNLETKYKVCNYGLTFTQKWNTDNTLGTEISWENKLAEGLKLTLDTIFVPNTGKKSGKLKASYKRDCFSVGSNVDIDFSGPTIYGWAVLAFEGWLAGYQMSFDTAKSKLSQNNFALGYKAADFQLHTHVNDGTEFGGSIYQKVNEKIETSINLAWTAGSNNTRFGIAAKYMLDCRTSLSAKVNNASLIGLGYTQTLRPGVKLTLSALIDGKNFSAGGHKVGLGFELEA
Putative RNA-binding protein Luc7-like 2 (Homo sapiens), sequence (Q9Y383 whole entry): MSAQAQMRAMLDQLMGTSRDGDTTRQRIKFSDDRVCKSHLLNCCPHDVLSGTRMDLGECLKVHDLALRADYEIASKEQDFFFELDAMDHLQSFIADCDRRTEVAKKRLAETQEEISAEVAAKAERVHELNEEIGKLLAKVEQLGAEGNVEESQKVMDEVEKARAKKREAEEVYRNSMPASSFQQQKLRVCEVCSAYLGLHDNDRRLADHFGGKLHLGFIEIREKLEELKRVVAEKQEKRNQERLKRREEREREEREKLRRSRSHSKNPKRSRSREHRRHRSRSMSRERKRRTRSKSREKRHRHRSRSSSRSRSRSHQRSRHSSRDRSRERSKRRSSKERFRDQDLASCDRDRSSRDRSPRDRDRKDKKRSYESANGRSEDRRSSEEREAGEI
Peptidyl-prolyl cis-trans isomerase A (Homo sapiens), sequence (P62937 whole entry, looked up): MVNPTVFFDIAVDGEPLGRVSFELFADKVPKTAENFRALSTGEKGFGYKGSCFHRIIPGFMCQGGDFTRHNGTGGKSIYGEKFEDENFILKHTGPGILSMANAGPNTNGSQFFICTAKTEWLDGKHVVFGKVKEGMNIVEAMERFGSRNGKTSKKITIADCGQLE
Mitogen-activated protein kinase kinase kinase kinase 3 (Homo sapiens), sequence (Q8IVH8 whole entry): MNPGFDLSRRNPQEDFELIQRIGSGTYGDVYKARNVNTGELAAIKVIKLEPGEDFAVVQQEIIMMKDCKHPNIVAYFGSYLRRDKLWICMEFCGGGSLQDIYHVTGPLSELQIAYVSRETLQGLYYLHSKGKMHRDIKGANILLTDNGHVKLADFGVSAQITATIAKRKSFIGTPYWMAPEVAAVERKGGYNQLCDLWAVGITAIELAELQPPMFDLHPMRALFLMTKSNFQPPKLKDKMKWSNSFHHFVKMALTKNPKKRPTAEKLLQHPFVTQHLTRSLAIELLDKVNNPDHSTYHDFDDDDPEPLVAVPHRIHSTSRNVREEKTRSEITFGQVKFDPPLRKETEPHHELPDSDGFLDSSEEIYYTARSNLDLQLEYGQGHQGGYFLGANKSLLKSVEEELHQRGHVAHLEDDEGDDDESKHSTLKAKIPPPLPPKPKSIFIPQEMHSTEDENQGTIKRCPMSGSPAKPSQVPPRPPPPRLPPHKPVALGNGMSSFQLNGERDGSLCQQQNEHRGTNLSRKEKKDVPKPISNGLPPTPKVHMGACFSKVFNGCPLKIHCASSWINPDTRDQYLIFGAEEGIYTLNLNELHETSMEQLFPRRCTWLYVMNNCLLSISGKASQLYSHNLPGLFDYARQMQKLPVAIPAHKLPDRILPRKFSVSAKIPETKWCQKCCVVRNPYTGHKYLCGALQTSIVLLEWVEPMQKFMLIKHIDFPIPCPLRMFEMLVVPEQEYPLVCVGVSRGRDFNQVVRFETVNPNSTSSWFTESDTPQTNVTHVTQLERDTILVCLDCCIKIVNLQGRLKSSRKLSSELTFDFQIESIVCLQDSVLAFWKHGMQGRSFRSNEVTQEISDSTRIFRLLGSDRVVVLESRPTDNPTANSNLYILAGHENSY
Chitobiosyldiphosphodolichol beta-mannosyltransferase (Homo sapiens), sequence (Q9BT22 whole entry): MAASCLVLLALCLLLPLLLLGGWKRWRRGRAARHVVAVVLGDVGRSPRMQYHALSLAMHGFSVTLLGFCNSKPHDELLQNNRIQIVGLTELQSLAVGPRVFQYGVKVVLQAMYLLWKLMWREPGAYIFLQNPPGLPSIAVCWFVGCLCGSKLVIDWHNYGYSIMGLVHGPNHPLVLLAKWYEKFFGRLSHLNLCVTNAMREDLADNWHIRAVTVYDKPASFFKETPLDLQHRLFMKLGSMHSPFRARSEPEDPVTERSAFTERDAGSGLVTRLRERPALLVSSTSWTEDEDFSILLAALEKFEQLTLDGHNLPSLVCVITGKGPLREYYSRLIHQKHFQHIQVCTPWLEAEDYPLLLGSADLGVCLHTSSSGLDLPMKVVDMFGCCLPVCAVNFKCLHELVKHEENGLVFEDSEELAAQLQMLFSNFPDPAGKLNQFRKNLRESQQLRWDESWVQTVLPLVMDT
Tyrosine-protein kinase Lyn (Homo sapiens), sequence (P07948 2-512 limits assumed): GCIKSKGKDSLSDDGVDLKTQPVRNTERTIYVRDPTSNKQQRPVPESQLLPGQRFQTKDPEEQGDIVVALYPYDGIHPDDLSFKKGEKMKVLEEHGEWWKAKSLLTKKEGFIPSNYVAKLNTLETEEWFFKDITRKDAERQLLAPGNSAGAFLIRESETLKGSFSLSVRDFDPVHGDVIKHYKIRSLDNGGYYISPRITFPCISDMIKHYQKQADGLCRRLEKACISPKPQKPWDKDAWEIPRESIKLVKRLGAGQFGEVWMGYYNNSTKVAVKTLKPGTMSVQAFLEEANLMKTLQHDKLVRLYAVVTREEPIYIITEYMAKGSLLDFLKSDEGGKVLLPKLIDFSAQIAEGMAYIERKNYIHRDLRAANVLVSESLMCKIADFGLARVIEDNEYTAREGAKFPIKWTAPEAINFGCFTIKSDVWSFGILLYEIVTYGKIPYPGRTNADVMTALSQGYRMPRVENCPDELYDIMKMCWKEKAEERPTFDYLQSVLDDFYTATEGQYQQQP
RNA-binding protein 3 (Homo sapiens), sequence (P98179 whole entry): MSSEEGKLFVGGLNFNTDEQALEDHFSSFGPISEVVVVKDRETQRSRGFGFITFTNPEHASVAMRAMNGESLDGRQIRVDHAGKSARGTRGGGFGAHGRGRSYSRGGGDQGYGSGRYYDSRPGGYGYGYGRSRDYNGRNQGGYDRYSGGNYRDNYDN

Work on `Cc1ccc(C(=O)Nc2cccc(C(F)(F)F)c2)cc1Nc1nc(-c2cccnc2)nc2c1cnn2C` yielded an ED50 [1] of 17 nM, an ED50 [2] of 97.8 nM and an ED50 [3] of 745 nM. It also gave an ED50 [4] of 4290 nM, an ED50 [5] of 8.68 mM and an ED50 [6] of 1060 nM. The ED50 [7] was 178 nM, the ED50 [8] was 0.134 µM and the ED50 [9] was 1.62 nM. The ED50 [10] was 23.6 µM, the ED50 [11] was 2.59 nM and the ED50 [12] was 1220 nM. The ED50 [13] was 20.5 mM, the ED50 [14] was 290 nM and the ED50 [15] was 51.7 nM. For the same molecule, the ED50 [16] was 1.77 µM, the ED50 [17] was 1140 nM and the ED50 [18] was 396 nM. The ED50 [19] was 13.3 µM, the ED50 [20] was 3030 nM and the ED50 [21] was 0.0186 µM. It also gave an ED50 [22] of 1.34 µM, an ED50 [23] of 4.1 µM and an ED50 [24] of 18 nM. For the same molecule, the ED50 [25] was 10.3 µM, the ED50 [26] was 4.51 µM and the ED50 [27] was 4.6 nM. For the same molecule, the ED50 [28] was 3200 nM, the ED50 [29] was 31.1 nM and the ED50 [30] was 11.2 µM. For the same molecule, the ED50 [31] was 1.64 µM, the ED50 [32] was 0.536 µM and the ED50 [33] was 13.5 µM. For the same molecule, the ED50 [34] was 2270 nM, the ED50 [35] was 1.22 µM and the ED50 [36] was 2390 nM. It also gave an ED50 [37] of 0.651 µM, an ED50 [38] of 5.84 nM and an ED50 [39] of 76.8 nM. The ED50 [40] was 0.187 µM, the ED50 [41] was 121 nM and the ED50 [42] was 16.4 µM. It also gave an ED50 [43] of 92.2 µM, an ED50 [44] of 1700 µM and an ED50 [45] of 4.25 µM. The ED50 (Plectin (Homo sapiens)) was 11.9 µM and the ED50 [46] was 4220 nM.
`Cc1ccc(C(=O)Nc2cccc(C(F)(F)F)c2)cc1Nc1nc(-c2cccnc2)nc2nn(C)cc12` was tested, and the ED50 [1] was 15.1 nM, the ED50 [2] was 1550 nM and the ED50 [3] was 23.3 nM. For the same molecule, the ED50 [4] was 116 nM, the ED50 [5] was 0.00199 mM and the ED50 [6] was 81.3 nM. It also gave an ED50 [7] of 1740 nM, an ED50 [8] of 511 µM and an ED50 [9] of 543 nM. It also gave an ED50 [10] of 0.57 µM, an ED50 [11] of 2630 nM and an ED50 [12] of 29.9 nM. It also gave an ED50 [13] of 0.0287 mM, an ED50 [14] of 5.8 nM and an ED50 [15] of 17.3 nM. For the same molecule, the ED50 [16] was 4.27 µM, the ED50 [17] was 16.3 nM and the ED50 [18] was 2040 nM. The ED50 [19] was 14.3 µM, the ED50 [20] was 103 nM and the ED50 [21] was 43.3 µM. The ED50 [22] was 60.5 µM, the ED50 [23] was 2.07 µM and the ED50 [24] was 3710 nM. The ED50 [25] was 27 µM, the ED50 [26] was 6.82 µM and the ED50 [27] was 149 nM. The ED50 [28] was 50.4 nM, the ED50 [29] was 28.9 nM and the ED50 [30] was 0.416 µM. For the same molecule, the ED50 [31] was 9.95 µM, the ED50 [32] was 9.4 µM and the ED50 [33] was 9.45 µM. It also gave an ED50 [34] of 13.4 nM, an ED50 [35] of 98.4 µM and an ED50 [36] of 18 nM. For the same molecule, the ED50 [37] was 23.2 µM, the ED50 [38] was 6.16 nM and the ED50 [39] was 5790 nM. For the same molecule, the ED50 [40] was 7.31 µM, the ED50 [41] was 125 nM and the ED50 [42] was 0.0486 µM. For the same molecule, the ED50 [43] was 37.9 µM, the ED50 [44] was 58.7 µM and the ED50 [45] was 8.41 µM. The ED50 (Plectin (Homo sapiens)) was 0.011 µM and the ED50 [46] was 21.8 nM.
